From US20070218189A1, “Reduction inhibitory agent for active oxygen eliminating-activity” (KABUSHIKI KAISHA HAYASHIBARA SEIBUTSU KAGAKU KENYUJO, priority 2001, published 2007)

Legend:
Assay type in all cases: biochemical
[1] = tested on: superoxide, formed in a xanthine-xanthine oxidase system; assay: Active oxygen eliminating activity of powdery carrot compositions with saccharides before and after storage, nitro blue tetrazolium (NBT) test (Experiment 3); details: for Activity (unit/g) After storage / Percentage of residual activity (%) / Activity (unit/g) Before storage: powdery carrot composition; for Activity (unit/g) After storage / Percentage of residual activity (%): saccharide added at 10% d.s.b., stored at 40° C. for seven days; for Activity (unit/g) Before storage: saccharide added to disrupted carrots at 10% d.s.b.; for residual percentage / reduction inhibitory activity for active oxygen eliminating activity among the saccharides tested: powdery carrot compositions, 40° C. seven days, in words
Procedure: Fresh raw carrots were disrupted by a mixer, and saccharides were respectively added to the mixture and dissolved therein to give a concentration of 10%, d.s.b. The solutions were dried under a reduced pressure at 40° C. for two days, dried in vacuo at the same temperature for 24 hours, and pulverized by a mixer into powdery carrot compositions. […] An about 100 g each of the compositions was placed and sealed in a 500-ml polystyrene container, and stored at 40° C. for seven days. The active oxygen eliminating activities of the compositions before and after storage were compared with each other. The active oxygen eliminating activity was assayed by the nitro blue tetrazolium (NBT) test by Toshio IMANARI et al. in Igakuno Ayumi, Vol. 101, pp. 496-497 (1977), and the level of superoxide, formed in a xanthine-xanthine oxidase system, was assayed by quantifying calorimetrically the content of formazan formed by reducing NBT. As a control, refined water was used as a test solution. One unit activity of active oxygen eliminating activity was defined as that inhibited 50% formazan formation as compared with the control. […] Thus cyclotetrasaccharide is preferable as an effective ingredient for a reduction inhibitory agent for active oxygen eliminating activity.

[2] = tested on: superoxide, formed in a hypoxanthine-xanthine oxidase system; assay: Active oxygen eliminating activity of powdery carrot compositions with saccharides before and after storage, electron spin resonance (ESR) test (Experiment 4); details: powdery carrot composition
Procedure: Fresh raw carrots were disrupted as Experiment 3, and saccharides were respectively added to the mixture and dissolved therein to give a concentration of 10%, d.s.b. The solutions were dried under a reduced pressure at 40° C. for one day, dried in vacuo at the same temperature for 17 hours, and pulverized by a mixer into powdery carrot compositions. […] About 100 g each of the compositions was placed and sealed in a 500-ml polystyrene container, and stored at 40° C. for seven or fourteen days. The active oxygen eliminating activities of the compositions before and after storage were compared with each other. The active oxygen eliminating activity was assayed by the electron spin resonance (ESR) test by Toshihiko OZAWA in BUNSEKI, Vol. 2, pp. 68-74 (2000), and the level of superoxide, formed in a hypoxanthine-xanthine oxidase system, was assayed by the spin-trapping with 5,5-dimethyl-1-pyrroline-N-oxide in ESR.

active oxygen = assay: Active oxygen eliminating activity of superoxide dismutase and antioxidants in cyclotetrasaccharide solution or water before and after storage (Experiment 7); details: for Activity (unit/mg antioxidant) After one storage / Residual activity (%): dark; for Activity (unit/mg antioxidant) Before storage: superoxide dismutase 5 μg/ml, α-glucosyl hesperidin and α-glucosyl rutin 10 mg/ml, catechin 50 μg/ml
Procedure: In one milliliter of 30% (w/v) cyclotetrasaccharide solution, which is prepared by using cyclotetrasaccharide obtained in Experiment 2, was dissolved five micrograms (μ g) of superoxide dismutase from a horseradish commercialized by Sigma Chemical Co., St. Louis, USA, 10 mg of α-glucosyl hesperidin commercialized by Hayashibara Biochemical Laboratories, Inc., Okayama Japan, 10 mg of α-glucosyl rutin commercialized by Hayashibara Biochemical Laboratories, Inc., Okayama, Japan, 250 μg of gallic acid commercialized by Wako Pure Chemical Industries, Ltd., Tokyo, Japan, or 50 μg of catechin to obtain a liquid composition. Each of the compositions was placed in a glass test tube, sealed with a rubber cap, and stored under a dark condition. As a control, water was used in place of the cyclotetrasaccharide solution.

[3] = cyclotetrasaccharide 0% (water), 80° C. 5 days, α-glucosyl hesperidin, α-glucosyl rutin 10 mg/ml, gallic acid 250 μg/ml
[4] = cyclotetrasaccharide 30%, 80° C. 5 days, α-glucosyl hesperidin, α-glucosyl rutin 10 mg/ml, gallic acid 250 μg/ml
[5] = cyclotetrasaccharide concentration 0% (water), gallic acid 250 μg/ml
[6] = cyclotetrasaccharide concentration 30%, gallic acid 250 μg/ml
[7] = cyclotetrasaccharide 0% (water), 60° C. 17 hours, 5 μg/ml
[8] = cyclotetrasaccharide 30%, 60° C. 17 hours, 5 μg/ml
[9] = cyclotetrasaccharide 0% (water), 25° C. 20 hours, 50 μg/ml
[10] = cyclotetrasaccharide 30%, 25° C. 20 hours, 50 μg/ml

Compound	Activity (unit/g) After storage [1]	Percentage of residual activity (%) [1]	Activity (unit/g) Before storage [1]	Activity (unit/mg antioxidant) Before storage (active oxygen; [5])	Activity (unit/mg antioxidant) Before storage (active oxygen; [6])	other results
OC[C@H]1O[C@H](O[C@H]2[C@H](O)[C@@H](O)C(O)O[C@@H]2CO)[C@H](O)[C@@H](O)[C@@H]1O (mixture of isomers) [Maltose, maltose]	180 unit/g	33%	550 unit/g	–	–	Activity (unit/g) Before storage ([2]; saccharide added at 10% d.s.b., before storage): 236 unit/g; Activity (unit/g) After two weeks storage ([2]; stored at 40° C. for fourteen days): 53 unit/g; percentage of residual activity After two weeks storage ([2]; stored at 40° C. for fourteen days, numerals in parentheses): 22%; Activity (unit/g) After one week storage ([2]; stored at 40° C. for seven days): 56 unit/g; percentage of residual activity After one week storage ([2]; stored at 40° C. for seven days, numerals in parentheses): 24%
O=C(O)c1cc(O)c(O)c(O)c1 [Gallic acid, gallic acid]	–	–	–	590 unit/mg antioxidant	600 unit/mg antioxidant	Activity (unit/mg antioxidant) After one storage (active oxygen; [3]): 390 unit/mg antioxidant; Residual activity (%) (active oxygen; [3]): 66%; Activity (unit/mg antioxidant) After one storage (active oxygen; [4]): 450 unit/mg antioxidant; Residual activity (%) (active oxygen; [4]): 75%
OC[C@@H](O)[C@@H](O)[C@H](O)[C@H](O)CO [Mannitol, mannitol]	59 unit/g	11%	520 unit/g	–	–	–
OC[C@@H](O)[C@@H](O)[C@H](O)[C@@H](O)CO [Sorbitol, sorbitol]	26 unit/g	5%	560 unit/g	–	–	–
OC[C@H]1O[C@@](CO)(O[C@H]2O[C@H](CO)[C@@H](O)[C@H](O)[C@H]2O)[C@@H](O)[C@@H]1O [Sucrose, sucrose]	180 unit/g	27%	660 unit/g	–	–	–
OC[C@H]1O[C@H](O[C@H]2O[C@H](CO)[C@@H](O)[C@H](O)[C@H]2O)[C@H](O)[C@@H](O)[C@@H]1O [Trehalose, trehalose]	380 unit/g	66%	580 unit/g	–	–	residual percentage / reduction inhibitory activity for active oxygen eliminating activity among the saccharides tested [1]: highest residual percentage
OCC1OC2OCC3O[C@H](O[C@H]4C(O)C(CO)OC(OCC5O[C@H](O[C@@H](C1O)C2O)C(O)C(O)[C@@H]5O)C4O)C(O)C(O)[C@@H]3O (some centres unmarked) [crystalline cyclotetrasaccharide hydrate]	–	–	–	–	–	change of the active oxygen eliminating activity on storage of a powder mixture (active oxygen; powdery crystalline cyclotetrasaccharide hydrate mixed dry with either of the powdery antioxidants, storage test as in Table 5): almost no change of the active oxygen eliminating activity
Superoxide dismutase	–	–	–	10,000 unit/mg antioxidant	12,000 unit/mg antioxidant	Activity (unit/mg antioxidant) After one storage (active oxygen; [7]): 4,600 unit/mg antioxidant; Residual activity (%) (active oxygen; [7]): 46%; Activity (unit/mg antioxidant) After one storage (active oxygen; [8]): 7,300 unit/mg antioxidant; Residual activity (%) (active oxygen; [8]): 61%
catechin	–	–	–	470 unit/mg antioxidant	450 unit/mg antioxidant	Activity (unit/mg antioxidant) After one storage (active oxygen; [9]): 2.2 unit/mg antioxidant; Residual activity (%) (active oxygen; [9]): 0%; Activity (unit/mg antioxidant) After one storage (active oxygen; [10]): 240 unit/mg antioxidant; Residual activity (%) (active oxygen; [10]): 53%
pullulan	360 unit/g	51%	710 unit/g	–	–	residual percentage / reduction inhibitory activity for active oxygen eliminating activity among the saccharides tested [1]: relatively-high reduction inhibitory activity
α-glucosyl hesperidin	–	–	–	3.8 unit/mg antioxidant	4.0 unit/mg antioxidant	Activity (unit/mg antioxidant) After one storage (active oxygen; [3]): 1.0 unit/mg antioxidant; Residual activity (%) (active oxygen; [3]): 26%; Activity (unit/mg antioxidant) After one storage (active oxygen; [4]): 2.1 unit/mg antioxidant; Residual activity (%) (active oxygen; [4]): 53%
α-glucosyl rutin	–	–	–	25 unit/mg antioxidant	26 unit/mg antioxidant	Activity (unit/mg antioxidant) After one storage (active oxygen; [3]): 18 unit/mg antioxidant; Residual activity (%) (active oxygen; [3]): 72%; Activity (unit/mg antioxidant) After one storage (active oxygen; [4]): 22 unit/mg antioxidant; Residual activity (%) (active oxygen; [4]): 85%
